Patent US9394300B2, “Quinolone derivatives” (Cadila Healthcare Limited, priority 2012, dated 2016)

Columns and labels:
C57 Mice [1] = test: Estimating hemoglobin levels in mice; assay type: in vivo; conditions: oral once daily for 7 consecutive days at 20 mg/kg, whole blood on 8th day
Method: (2) Protocol for Estimating Hemoglobin Levels in Mice
C57 mice were administered compounds of the present invention at 10 ml/kg by oral route daily once in the morning for 7 consecutive days at 20 mg/kg. On 8th day animals were bled by retro-orbital puncture under light ether anesthesia in microfuge tubes containing 2% EDTA (10 μl/100 μl of blood) for whole blood. Hemoglobin, Reticulocyte count and RBC count were measured using standard procedures.

C57 Mice [2] = test: Estimating circulating EPO release in mice (plasma EPO by mouse EPO ELISA); assay type: in vivo; conditions: plasma six hours after administration, EPO in control = 62 ng/mL
Method: (1) Protocol for Estimating Circulating EPO Release in Mice
C57 Mice were administered various doses (10 mg/kg, 30 mg/kg, 50 mg/kg, 100 mg/kg) of compounds of the present invention by oral gavage at 10 ml/kg. Six hours after compound administration, mice were bled by retro-orbital puncture, under light ether anesthesia in microfuge tubes containing 2% EDTA (10 μl/100 μl of blood). Plasma was separated and analyzed for EPO content by mouse EPO ELISA.

Structure (SMILES) | Hemoglobin (g/dL) 20 mg/kg compound (C57 Mice [1]) [g/dL] | EPO (ng/mL) oral gavage 10 mg/kg (C57 Mice [2]) [ng/mL] | EPO (ng/mL) oral gavage 30 mg/kg (C57 Mice [2]) [ng/mL] | EPO (ng/mL) oral gavage 50 mg/kg (C57 Mice [2]; oral gavage 50 mg/kg) [ng/mL]
O=C(O)CNC(=O)c1c(O)c2ccccc2n(OCC2CC2)c1=O [Example 2, 2-(1-(cyclopropylmethoxy)-4-hydroxy-2-oxo-1,2-dihydroquinoline-3-carboxamido)acetic acid] | 16.3 | 396 | 4822 | 
C=CCOn1c(=O)c(C(=O)NCC(=O)O)c(O)c2ccccc21 [Example 15, 2-(1-(allyloxy)-4-hydroxy-2-oxo-1,2-dihydroquinoline-3-carboxamido)acetic acid] | 13.2 | 315 |  | 4269
CCCOn1c(=O)c(C(=O)NCC(=O)O)c(O)c2ccccc21 [Example 21, 2-(4-hydroxy-2-oxo-1-propoxy-1,2-dihydroquinoline-3-carboxamido) acetic acid] | 15.8 | 190 | 6234 | 
